Data reported in ChEMBL document CHEMBL3390830, “Targeting epigenetic modifiers: Inhibitors of histone methyltransferases” (Medchemcomm, 2010).

Tests used:
[1] = target: Histone-lysine N-methyltransferase Su(var)3-9 (Drosophila melanogaster, UniProt P45975); assay: Inhibition of Drosophila melanogaster Su(var)3-9
[2] = target: T1, Histone-lysine N-methyltransferase EHMT2 (Homo sapiens, UniProt Q96KQ7); assay: Inhibition of G9a (unknown origin)
T1 sequence (Q96KQ7 whole entry): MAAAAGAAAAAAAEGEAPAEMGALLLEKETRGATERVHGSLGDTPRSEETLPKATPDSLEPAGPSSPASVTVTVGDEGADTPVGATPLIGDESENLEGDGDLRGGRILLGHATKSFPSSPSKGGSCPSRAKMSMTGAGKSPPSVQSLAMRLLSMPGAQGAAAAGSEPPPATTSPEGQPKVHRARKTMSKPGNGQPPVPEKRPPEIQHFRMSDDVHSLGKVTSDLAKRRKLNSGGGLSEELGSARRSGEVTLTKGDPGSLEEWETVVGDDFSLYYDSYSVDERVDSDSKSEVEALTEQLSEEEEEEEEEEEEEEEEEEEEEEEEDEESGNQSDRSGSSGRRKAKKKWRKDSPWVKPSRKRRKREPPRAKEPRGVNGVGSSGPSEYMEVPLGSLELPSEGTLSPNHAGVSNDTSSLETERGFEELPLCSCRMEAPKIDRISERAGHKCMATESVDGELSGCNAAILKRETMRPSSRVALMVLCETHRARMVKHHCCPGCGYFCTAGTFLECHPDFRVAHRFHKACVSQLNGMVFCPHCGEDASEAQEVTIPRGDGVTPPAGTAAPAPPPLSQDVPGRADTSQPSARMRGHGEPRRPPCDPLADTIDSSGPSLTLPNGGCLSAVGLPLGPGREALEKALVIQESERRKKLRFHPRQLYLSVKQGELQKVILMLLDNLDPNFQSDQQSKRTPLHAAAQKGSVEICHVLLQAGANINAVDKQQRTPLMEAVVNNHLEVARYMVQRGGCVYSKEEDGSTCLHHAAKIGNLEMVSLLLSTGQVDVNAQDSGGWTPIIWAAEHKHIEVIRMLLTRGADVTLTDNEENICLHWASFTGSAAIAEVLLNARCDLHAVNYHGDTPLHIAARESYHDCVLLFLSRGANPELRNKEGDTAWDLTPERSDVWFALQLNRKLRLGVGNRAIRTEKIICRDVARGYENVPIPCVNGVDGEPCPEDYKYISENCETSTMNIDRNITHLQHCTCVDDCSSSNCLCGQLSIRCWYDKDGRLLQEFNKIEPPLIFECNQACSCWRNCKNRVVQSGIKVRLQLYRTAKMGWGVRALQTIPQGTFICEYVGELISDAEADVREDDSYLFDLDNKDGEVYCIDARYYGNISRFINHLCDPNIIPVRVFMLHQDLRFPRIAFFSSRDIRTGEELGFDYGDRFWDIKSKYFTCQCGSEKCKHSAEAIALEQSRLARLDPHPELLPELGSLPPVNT

[3] = target: T2, Protein arginine N-methyltransferase 1 (Homo sapiens, UniProt Q99873); assay: Inhibition of GST-fused PRMT1 (unknown origin) expressed in Escherichia coli BL21 assessed as reduction of asymmetric H4R3me2 level by DELFIA assay
[4] = target: T1, Histone-lysine N-methyltransferase EHMT2; assay: Inhibition of G9a (685 to 1000) (unknown origin) expressed in Escherichia coli BL21 assessed as reduction of H3K9me2 level by DELFIA assay
[5] = target: T2, Protein arginine N-methyltransferase 1; assay: Inhibition of recombinant human GST-tagged PRMT1 assessed as inhibition of histone methylation
[6] = target: T3, NAD-dependent protein deacetylase sirtuin-1 (Homo sapiens, UniProt Q96EB6); assay: Inhibition of recombinant human N-terminal GST-tagged full length SIRT1 expressed in Escherichia coli BL21(DE3) using ZMAL as substrate after 4 hrs by homogeneous fluorescent deacetylase assay
T3 sequence (Q96EB6 whole entry): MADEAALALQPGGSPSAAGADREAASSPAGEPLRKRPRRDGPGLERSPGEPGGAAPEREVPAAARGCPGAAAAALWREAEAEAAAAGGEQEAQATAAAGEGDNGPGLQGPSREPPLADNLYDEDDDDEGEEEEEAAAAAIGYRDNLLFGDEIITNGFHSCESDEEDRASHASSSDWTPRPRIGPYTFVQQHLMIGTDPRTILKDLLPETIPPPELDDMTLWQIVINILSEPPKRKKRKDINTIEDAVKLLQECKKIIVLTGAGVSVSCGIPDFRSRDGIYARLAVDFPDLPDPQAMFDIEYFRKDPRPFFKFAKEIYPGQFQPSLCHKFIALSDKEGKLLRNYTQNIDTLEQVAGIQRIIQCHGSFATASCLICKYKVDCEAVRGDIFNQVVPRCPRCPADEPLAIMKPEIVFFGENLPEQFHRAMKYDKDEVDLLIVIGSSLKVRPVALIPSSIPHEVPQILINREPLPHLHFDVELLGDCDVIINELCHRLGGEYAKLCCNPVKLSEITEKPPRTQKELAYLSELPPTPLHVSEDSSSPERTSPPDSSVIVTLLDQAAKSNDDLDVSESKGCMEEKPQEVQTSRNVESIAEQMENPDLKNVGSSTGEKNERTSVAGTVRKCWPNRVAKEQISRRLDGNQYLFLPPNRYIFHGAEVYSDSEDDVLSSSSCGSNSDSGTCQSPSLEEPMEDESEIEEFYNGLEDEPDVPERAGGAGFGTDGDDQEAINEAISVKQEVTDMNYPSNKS

[7] = target: T2, Protein arginine N-methyltransferase 1; assay: Inhibition of human PRMT1 using GST-tagged Npl3 as substrate preincubated for 15 mins followed by enzyme addition measured after 1 hr by colorimetric assay

T2 sequence (Q99873 whole entry, the tested form may be a part): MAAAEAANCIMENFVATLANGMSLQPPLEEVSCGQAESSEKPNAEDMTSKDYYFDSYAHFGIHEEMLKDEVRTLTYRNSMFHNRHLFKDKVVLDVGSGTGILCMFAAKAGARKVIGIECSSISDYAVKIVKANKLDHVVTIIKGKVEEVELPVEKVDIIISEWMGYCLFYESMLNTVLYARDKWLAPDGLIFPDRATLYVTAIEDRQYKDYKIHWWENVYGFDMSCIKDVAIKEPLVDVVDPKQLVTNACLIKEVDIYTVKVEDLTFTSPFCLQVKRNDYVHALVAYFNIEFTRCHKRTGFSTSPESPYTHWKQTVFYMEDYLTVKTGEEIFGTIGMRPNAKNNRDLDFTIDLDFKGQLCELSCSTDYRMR
Sequence of Histone-lysine N-methyltransferase Su(var)3-9 (P45975 whole entry): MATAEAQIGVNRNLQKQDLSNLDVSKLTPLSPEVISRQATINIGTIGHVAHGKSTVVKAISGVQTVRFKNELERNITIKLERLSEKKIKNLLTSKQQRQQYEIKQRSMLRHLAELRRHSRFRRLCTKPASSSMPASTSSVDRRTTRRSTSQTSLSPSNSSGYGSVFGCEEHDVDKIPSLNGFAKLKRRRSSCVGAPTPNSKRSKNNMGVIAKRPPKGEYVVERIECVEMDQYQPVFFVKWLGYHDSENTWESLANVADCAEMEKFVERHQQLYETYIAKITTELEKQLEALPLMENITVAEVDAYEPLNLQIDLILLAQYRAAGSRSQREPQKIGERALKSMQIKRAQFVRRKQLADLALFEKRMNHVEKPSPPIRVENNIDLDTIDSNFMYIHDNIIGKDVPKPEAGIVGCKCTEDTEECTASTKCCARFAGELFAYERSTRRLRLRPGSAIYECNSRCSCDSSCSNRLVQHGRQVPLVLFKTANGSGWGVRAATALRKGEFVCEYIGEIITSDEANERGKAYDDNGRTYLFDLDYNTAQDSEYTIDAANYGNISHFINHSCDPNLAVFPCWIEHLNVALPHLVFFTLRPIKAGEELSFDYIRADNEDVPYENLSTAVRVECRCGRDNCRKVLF

## CN1C(=O)[C@@]23C[C@]4([C@]56C[C@@]78SS[C@@](CO)(C(=O)N7[C@H]5Nc5ccccc56)N(C)C8=O)c5ccccc5N[C@@H]4N2C(=O)[C@]1(CO)SS3 [CHAETOCIN]
[1]
  IC50: 0.8 µM
[2]
  IC50: 2.5 µM

## COc1ccc(C(=O)Oc2ccc(CCn3c(NC(=O)c4ccc(C(F)(F)F)cc4)nc4cc(C(=O)O)ccc43)cc2)cc1
[3]
  IC50: 6 µM
[4]
  IC50: 5 µM

## COc1ccc(/N=N/c2c(S(=O)(=O)O)cc3cc(Cc4nc(Cl)nc(Cl)n4)ccc3c2O)cc1
[5]
  IC50: 4 µM

## O=C(Nc1ccc2c(O)cc(S(=O)(=O)O)cc2c1)Nc1ccc2c(O)cc(S(=O)(=O)O)cc2c1
[6]
  IC50: 32 µM

## O=C1OC2(c3ccccc31)c1cc(Br)c(O)c(Br)c1Oc1c2cc(Br)c(O)c1Br [EOSIN]
[7]
  IC50: 1 µM
